Test results: US10597388B2, “Pyridazinone herbicides” (FMC CORPORATION, priority 2014, dated 2020)

Key:
Format in all cases: in vivo
[1] = tested on: barnyardgrass (Echinochloa crus-galli); assay: Test A greenhouse herbicide test, pre- and postemergence
Excerpt: (§1) Seeds of plant species selected from barnyardgrass (Echinochloa crus-galli), kochia (Kochia scoparia), ragweed (common ragweed, Ambrosia elatior), ryegrass, Italian (Italian ryegrass, Lolium multiflorum), crabgrass, large (large crabgrass, Digitaria sanguinalis), foxtail, giant (giant foxtail, Setaria faberii), momingglory (Ipomoea spp.), pigweed (Amaranthus retroflexus), velvetleaf (Abutilon theophrasti), wheat (Triticum aestivum), and corn (Zea mays) were planted into a blend of loam soil and sand and treated preemergence with a directed soil spray using test chemicals formulated in a non-phytotoxic solvent mixture which included a surfactant.
(§2) At the same time, plants selected from these crop and weed species and also blackgrass (Alopecurus myosuroides), and galium (catchweed bedstraw, Galium aparine) were planted in pots containing the same blend of loam soil and sand and treated with postemergence applications of test chemicals formulated in the same manner. Plants ranged in height from 2 to 10 cm and were in the one- to two-leaf stage for the postemergence treatment. Treated plants and untreated controls were maintained in a greenhouse for approximately 10 d, after which time all treated plants were compared to untreated controls and visually evaluated for injury. Plant response ratings, summarized in Table A, are based on a 0 to 100 scale where 0 is no effect and 100 is complete control. A dash (-) response means no test result.

corn (Zea mays) = assay: as above; conditions: Postemergence; for Corn plant response rating: 0 to 100 scale, 0 is no effect, 100 is complete control
Excerpt: as §1, §2

[2] = tested on: foxtail, giant (giant foxtail, Setaria faberii); assay: as above
Excerpt: as §1, §2

kochia (Kochia scoparia) = assay: as above
Excerpt: as §1, §2

[3] = tested on: pigweed (Amaranthus retroflexus); assay: as above
Excerpt: as §1, §2

[4] = tested on: ragweed (common ragweed, Ambrosia elatior); assay: as above
Excerpt: as §1, §2

[5] = tested on: ryegrass, Italian (Italian ryegrass, Lolium multiflorum); assay: as above
Excerpt: as §1, §2

[6] = tested on: wheat (Triticum aestivum); assay: as above; conditions: Postemergence; for Wheat plant response rating: 0 to 100 scale, 0 is no effect, 100 is complete control
Excerpt: as §1, §2

[7] = tested on: blackgrass (Alopecurus myosuroides); assay: Test A greenhouse herbicide test, postemergence; conditions: for Blackgrass plant response rating: 0 to 100 scale, 0 is no effect, 100 is complete control
Excerpt: as §2

[8] = tested on: galium (catchweed bedstraw, Galium aparine); assay: Test A greenhouse herbicide test, postemergence; conditions: for Galium plant response rating: 0 to 100 scale, 0 is no effect, 100 is complete control
Excerpt: as §2

[9] = Postemergence, 125 g ai/ha, 0 to 100 scale where 0 is no effect and 100 is complete control
[10] = Postemergence, 500 g ai/ha, 0 to 100 scale, 0 is no effect, 100 is complete control
[11] = Preemergence, 125 g ai/ha, 0 to 100 scale where 0 is no effect and 100 is complete control
[12] = 125 g ai/ha, 0 to 100 scale where 0 is no effect and 100 is complete control
[13] = Preemergence, 500 g ai/ha, 0 to 100 scale where 0 is no effect and 100 is complete control
[14] = Postemergence, 500 g ai/ha, visual rating after approx. 10 d, 0 to 100 scale (0 no effect, 100 complete control)
[15] = 500 g ai/ha, visual rating after approx. 10 d, 0 to 100 scale (0 no effect, 100 complete control)

Row | SMILES | Plant response rating, Barnyardgrass [1, 9] | Barnyardgrass plant response rating [1, 11] | Plant response rating, Corn (corn (Zea mays); [12]) | Plant response rating, Foxtail, Giant [2, 9] | Foxtail, Giant plant response rating [2, 11] | Plant response rating, Foxtail, Giant [2, 13] | Plant response rating, Kochia (kochia (Kochia scoparia); [9]) | Kochia plant response rating (kochia (Kochia scoparia); [11]) | Plant response rating, Kochia (kochia (Kochia scoparia); [13]) | Plant response rating, Pigweed [3, 9] | Pigweed plant response rating [3, 11] | Plant response rating, Pigweed [3, 13] | Plant response rating, Ragweed [4, 9] | Ragweed plant response rating [4, 11] | Plant response rating, Ragweed [4, 13] | Plant response rating, Ryegrass, Italian [5, 9] | Ryegrass, Italian plant response rating [5, 11] | Plant response rating, Ryegrass, Italian [5, 13] | Plant response rating, Wheat [6, 12] | Plant response rating, Blackgrass [7, 12] | other results
1 | CCc1nn(C)c(=O)c(-c2c(C)oc3ccc(Cl)cc23)c1O [Compound 77] | 0 | 0 | 0 | 0 | 0 | 10 | 0 | 0 | 0 | 0 | 0 | 0 | 0 | 0 | 0 | 20 | 10 | 40 | 0 | 0 | Barnyardgrass plant response rating [1, 10]: 0; Plant response rating, Barnyardgrass ([1]; Preemergence, 500 g ai/ha, 0 to 100 scale, 0 no effect, 100 complete control): 10; Corn plant response rating (corn (Zea mays); 500 g ai/ha): 0; Foxtail, Giant plant response rating [2, 10]: 0; Kochia plant response rating (kochia (Kochia scoparia); [10]): 10; Pigweed plant response rating [3, 10]: 0; Ragweed plant response rating [4, 10]: 0; Ryegrass, Italian plant response rating [5, 10]: 60; Wheat plant response rating ([6]; 500 g ai/ha): 0; Blackgrass plant response rating ([7]; 500 g ai/ha): 0; Plant response rating, Galium [8, 12]: 20; Galium plant response rating ([8]; 500 g ai/ha): 60
2 | Cc1nn(C)c(=O)c(-c2c(Cl)n(C)c3ccccc23)c1O [Compound 95] | 0 | 0 | 0 | 0 | 0 | 0 | 0 | 0 | 10 | 0 | 0 | 20 | 0 | 0 | 20 | 10 | 10 | 60 | 0 | 0 | Barnyardgrass plant response rating [1, 10]: 10; Plant response rating, Barnyardgrass [1, 13]: 0; Corn plant response rating (corn (Zea mays); 500 g ai/ha): 0; Foxtail, Giant plant response rating [2, 10]: 0; Kochia plant response rating (kochia (Kochia scoparia); [10]): 10; Pigweed plant response rating [3, 10]: 0; Ragweed plant response rating [4, 10]: 10; Ryegrass, Italian plant response rating [5, 10]: 50; Wheat plant response rating ([6]; 500 g ai/ha): 0; Blackgrass plant response rating ([7]; 500 g ai/ha): 10; Plant response rating, Galium [8, 12]: 20; Galium plant response rating ([8]; 500 g ai/ha): 60
3 | CC(=O)Oc1cnn(C)c(=O)c1-c1c(C)sc2ccccc12 [Compound 120] | 0 | 0 | 0 | 0 | 0 | 20 | 0 | 0 | 0 | 20 | 0 | 70 | 0 | 0 | 30 | 20 | 30 | 30 | 0 | 0 | Plant response rating, Barnyardgrass [1, 14]: 10; Plant response rating, Barnyardgrass [1, 13]: 30; Plant response rating, Corn (corn (Zea mays); [15]): 0; Plant response rating, Foxtail, Giant [2, 14]: 10; Plant response rating, Kochia (kochia (Kochia scoparia); [14]): 30; Plant response rating, Pigweed [3, 14]: 50; Plant response rating, Ragweed [4, 14]: 10; Plant response rating, Ryegrass, Italian [5, 14]: 80; Plant response rating, Wheat [6, 15]: 0; Plant response rating, Blackgrass [7, 15]: 10; Plant response rating, Galium [8, 12]: 40; Plant response rating, Galium [8, 15]: 70
